The assay concerns CEM cells HIV-1 protection, formazan growth assay. The assay is described as follows: NCI AIDS Antiviral Assay. Particulars: for IC50: measured here: growth of uninfected CEM cells. Summed up: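 Soluble formazan readout of cell growth; CEM cells ± HIV-1; 5 drug concs. ≥50% protection → retest; ≥50% again = moderately active; reproducible 100% = confirmed active.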

Molecules are shown by their SMILES. Where “and” joins values, the source holds several entries; their conditions need not be identical. Equal entries are not always repeated. Calls of active or inactive are those of the source.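 How the source made its calls: active means compounds giving half or more protection of infected cells from virus-caused growth loss, again on retest; inactive means the rest.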

The source of these data is PubChem BioAssay AID179 (DTP/NCI, 2004).

Broadly, the EC50 is the concentration at which the effect is half-maximal. By IC50 is commonly meant the concentration that inhibits the measured activity by half. `COc1ccc(C[C@H]2COC(=O)[C@@H]2Cc2ccc(O)c(O)c2)cc1OC`: the EC50 is more than 200 µM and the IC50 came out at 19.5 µM.
The like results for `CN(C)CCNc1ccc(CO)c2sc3ccc(O)cc3c(=O)c12` were, in that order, more than 2 µM and 0.105 µM.
The like results for `O=[As](O)(O)c1ccc(N=Nc2ccc(O)cc2)cc1` were, in that order, more than 200 µM and 138 µM.
Turning to `CCC1=C(c2cccc(OC(C)=O)c2)C(C)c2ccc(OC(C)=O)cc21` (centres undefined), the EC50 was more than 200 µM and the IC50 came to 7.41 µM.
Taken in the same sequence, the figures for `CCCC(O)C(=O)C(CCC)N(CC)CC` (centres undefined) were more than 1100 µM and more than 1100 µM.
On to `COC(=O)c1ccccc1/C=C1\Cc2cc3c(cc2C1=O)CCC3`, for which the EC50 was more than 200 µM and the IC50 is 45.7 µM.
The like results for `N#CC1(C#N)C(c2ccccc2)C=CC(c2ccc([N+](=O)[O-])cc2)C1(C#N)C#N` (centres undefined) were, in that order, more than 200 µM and 3.55 µM.
In the case of `C#Cc1cccc(N2C(=O)CCC2=O)c1`, the EC50 was more than 468 µM and the IC50 worked out at 17.4 µM.
Taken in the same sequence, the figures for `CCOC(=O)/C(F)=C/c1cccc(C#N)c1` were more than 117 µM and more than 117 µM.
Taken in the same sequence, the figures for `O=C(Nc1ccccc1)N1CCC2N(C(=O)Nc3ccccc3)CCC3N(C(=O)Nc4ccccc4)CCC1N23` (centres undefined) were more than 13.2 µM and more than 13.2 µM.
The like results for `C/C(C=O)=C\c1ccc([N+](=O)[O-])cc1` were, in that order, more than 135 µM and 75.9 µM.
Consider `O=c1[nH]c(Nc2nc3ccccc3[nH]2)nc(O)c1Cc1ccccc1`, for which the EC50 is more than 151 µM and the IC50 is more than 151 µM.
With `C=Cc1ccc(C)[n+](C[Si](C)(C)O[Si](C)(C)C)c1`, the EC50 was more than 617 µM and the IC50 was 309 µM.
The like results for `CC(O)CCC(=O)NCCS(=O)(=O)O` (centres undefined) were, in that order, more than 200 µM and more than 200 µM.
The like results for `CO[C@H]1c2cccc3cccc(c23)[C@@H]1n1[nH]c(=O)n(C(C)(C)C)c1=O` were, in that order, more than 200 µM and more than 200 µM.
The like results for `CCC1(CC)C(=O)N(C(=O)c2ccc(Cl)cc2)N(C(=O)c2ccccc2Cl)C1=O` were, in that order, more than 200 µM and 45.7 µM.
With `NC(CSCCSCC(N)C(=O)O)C(=O)O` (centres undefined), the EC50 is more than 10 µM and the IC50 was more than 10 µM.
For the compound `NC(=S)Nc1[nH]c(=S)nc2[nH]ccc12`, the EC50 is more than 91.2 µM and the IC50 amounted to 83.2 µM.
Taken in the same sequence, the figures for `Cc1oc2c(c(=O)c1C)CN(Cc1ccccc1)CC2` were more than 331 µM and 275 µM.
Turning to `COc1ccc2c(c1)c(=O)c(C(=O)O)cn2CCCOc1ccc([N+](=O)[O-])cc1`, the result was inactive.
For `CCCCCC=C(c1cc(I)c(OC)c(C(=O)OC)c1)c1cc(I)c(OC)c(C(=O)OC)c1`, the EC50 is more than 200 µM and the IC50 was found to be 166 µM.
`Brc1cnc2nsnc2c1`: the outcome was inactive.
`COc1ccccc1NC(=O)CC(=O)N1N=C(C)C(N=Nc2ccc(C(=O)O)cc2)C1=O` (centres undefined): the EC50 was more than 200 µM and the IC50 was more than 200 µM.
Turning to `CO[C@H]1/C=C/O[C@@]2(C)Oc3c(C)c(O)c4c(O)c(c(/C=N/N5CCN(C)CC5)c(O)c4c3C2=O)NC(=O)/C(C)=C\C=C\[C@H](C)[C@H](O)[C@@H](C)[C@@H](O)[C@@H](C)[C@H](OC(C)=O)[C@@H]1C`, the EC50 is more than 151 µM and the IC50 worked out at 93.3 µM.
Turning to `Nc1ccc(/C=C2\C=Cc3ccccc32)cc1`, the EC50 was more than 200 µM and the IC50 amounted to 28.2 µM.
As to `CCN(C(=O)c1ccc([N+](=O)[O-])cc1)C(c1ccccc1)P(=O)(c1ccccc1)c1ccccc1` (centres undefined), the result was inactive.
On to `CNC(=O)OCCOc1ccccc1`, for which the EC50 is more than 200 µM and the IC50 was more than 200 µM.
Regarding `S=C1SCC2CCCN12` (centres undefined), the result was inactive.
`CCOC(=O)CCNC(=O)Sc1ccccc1C(=O)NCCC(N)=O` had a half-maximal effective concentration (EC50) of 1.2 µM and an IC50 of 110 µM.
Take `N#Cc1c(=N)cc2c3ccccc3oc3c(C#N)c(N)[nH]c1c32`: the EC50 was more than 200 µM and the IC50 stood at 195 µM.
For the compound `N=c1c2ncn(C3OC(CO)CC3F)c2ncn1O` (centres undefined), the outcome was inactive.
In the case of `CN(C)N=Nc1ccc(S(N)(=O)=O)cc1`, the EC50 is more than 295 µM and the IC50 amounted to 37.2 µM.
For `O=c1c2c(sc3ccccc13)NCN(CCc1ccccc1)C2`, the EC50 is 17.4 µM and the IC50 was determined as 40.7 µM.
The like results for `CCCCOP(=O)(/C=C\c1ccccn1)OCCCC` were, in that order, more than 120 µM and more than 120 µM.
Consider `N#Cc1c(N2CCCC2)nsc1NCc1ccccc1`, for which the EC50 is more than 200 µM and the IC50 was more than 200 µM.
As to `COC(=O)/N=[N+](\[O-])C(c1ccc(Cl)cc1)c1ccc(Cl)cc1`, the EC50 is more than 200 µM and the half-inhibitory concentration (IC50) was 64.6 µM.
Taken in the same sequence, the figures for `C#CCN1C(=O)CN2C(Cl)(Cl)C2(c2ccccc2)c2cc(Cl)ccc21` (centres undefined) were more than 200 µM and 22.9 µM.
Taken in the same sequence, the figures for `Cc1ccc(-n2cc(/C(N)=N/O)c3ccccc3c2=O)cc1` were more than 89.1 µM and more than 89.1 µM.
Taken in the same sequence, the figures for `CN(C)c1nc2oc(-c3ccccc3)c(-c3ccccc3)c2c2nncn12` were more than 151 µM and more than 151 µM.
`CC(=O)O[C@@H]1CC[C@]2(C)C3CC[C@]4(C)C(C(C)CCc5nc6ccccc6n5C(C)=O)CCC4C3[C@H](OC(C)=O)C[C@@H]2C1` (some centres undefined): the EC50 is more than 50.1 µM and the IC50 worked out at 3.16 µM.
Turning to `C=CN1C(=O)OC(c2ccccc2)C1c1ccccc1` (centres undefined), the EC50 was more than 93.3 µM; the IC50 was > 79.4 µM and 30.2 µM.
Turning to `CC1(Br)Cc2ccccc2C1=O` (centres undefined), the outcome was inactive.
As for `CC(=O)NC1C(OCc2ccccc2)OC(CO)C(O)C1OCC(=O)NC(C)C(=O)NC(CCC(=O)NCCCCCNc1c2ccccc2nc2cccc([N+](=O)[O-])c12)C(N)=O` (centres undefined), the EC50 was more than 200 µM and the IC50 worked out at 0.0776 µM.
Taken in the same sequence, the figures for `CC(=O)Nc1ccc(-c2nnc(SCC(=O)Nc3cccc(C)c3)o2)cc1` were more than 67.6 µM and 11.7 µM.
In the case of `O=C(NC(Cc1cnc[nH]1)C(=O)N1CCCC1)C1CCCC1` (centres undefined), the EC50 is more than 200 µM.
On to `O=c1[nH]c2ccccc2c(=O)n1/N=C/c1ccc(Cl)cc1`, for which the EC50 is more than 200 µM and the IC50 was more than 200 µM.
As to `NC1CC(=O)c2c(Br)csc21` (centres undefined), the EC50 is more than 200 µM and the 50% inhibitory concentration (IC50) came out at 50.1 µM.
For `CC(=O)OC1=C2CC3(C)OC(=O)CC(C)(C)C3=CC=C2C=C(C(C)C)C1=O` (centres undefined), the outcome was inactive.
In turn, `Cc1ccc(C(=O)c2ccccc2C(=O)O)cc1C(=O)O` came in with an EC50 of more than 200 µM and an IC50 of more than 200 µM.
For the compound `CCOc1ccc(NC(=O)C(=O)C2C(=O)Nc3ccccc3S2=O)cc1` (centres undefined), the EC50 is more than 50.1 µM and the IC50 was more than 50.1 µM.
Take `C=CCCC(=O)CC(O)(C(F)(F)F)C(F)(F)F`: the outcome was inactive.
Regarding `O=[N+]([O-])c1ccc2[nH]nc(OCc3ccccc3Cl)c2c1`, the EC50 was more than 129 µM and the IC50 is more than 129 µM.
With `Cc1ccc(NC2=CC(=O)C(NO)c3ccccc32)cc1` (centres undefined), the EC50 is more than 200 µM and the IC50 came out at 3.89 µM.
Taken in the same sequence, the figures for `CCCCCC/C=C\CCCCCCCCC(=O)c1cccc(OC)c1OC` were more than 200 µM and more than 200 µM.
With `CCOC(=O)c1c(NC(=O)c2cccs2)sc2c1CCCC2`, the EC50 is more than 151 µM and the IC50 was more than 151 µM.
With `O=C(NCC(O)CNC(=O)C(F)(F)F)C(F)(F)F`, the outcome was inactive.
In the case of `CCOC(=O)c1c[nH]cc1-c1cn(S(=O)(=O)c2ccccc2)cc1C`, the EC50 is more than 200 µM and the IC50 turned out to be 50.1 µM.
On to `CSC(=S)N/N=C/c1nccc2ccccc12`, for which the result was inactive.
Consider `Cc1cccc([P+](Cc2ccccc2)(c2cccc(C)c2)c2cccc(C)c2)c1`, for which the EC50 was more than 200 µM and the IC50 worked out at 0.589 µM.
Taken in the same sequence, the figures for `CC(C)C1CSC2N1C(=O)C2(OCc1ccccc1)C1CC1` (centres undefined) were more than 200 µM and 81.3 µM.
The like results for `Cc1ccc(NC(=O)CCc2nnc3s/c(=C\c4cccc([N+](=O)[O-])c4)c(=O)n23)cc1` were, in that order, more than 1.74 µM and more than 1.74 µM.
Taken in the same sequence, the figures for `O=[N+]([O-])c1ccc(OCCC[P+](c2ccccc2)(c2ccccc2)c2ccccc2)c(Cl)c1` were more than 200 µM and 1.7 µM.
In the case of `O=[N+]([O-])C(C=C(n1nnc2ccccc21)n1nnc2ccccc21)=C(n1nnc2ccccc21)n1nnc2ccccc21`, the EC50 is more than 200 µM and the IC50 was more than 200 µM.
As for `O=NNc1ccc(S(=O)(=O)c2ccccc2)cn1`, the EC50 was more than 200 µM and the IC50 was more than 200 µM.
For `CCOC(=O)C1C/C(=N\OC(C)=O)c2ccc(OC)c(OC)c2C1` (centres undefined), the result was inactive.
`Cc1nc2c(Br)cc(Br)cc2c(=O)n1-c1ccccc1N`: the EC50 was more than 200 µM and the IC50 is 67.6 µM.
As to `C=CCOC1OC(CS(=O)(=O)O)C(O)C(O)C1O` (centres undefined), the result was inactive.
`C=CC[C@H](C[C@H](C[C@H](C[C@H](C[C@H](C[C@H](C[C@H](C[C@H](C[C@H](C[C@H](CCCCC)OC)OC)OC)OC)OC)OC)OC)OC)OC)OC`: the EC50 is more than 200 µM and the IC50 came out at 115 µM.
As to `O=C(O)Cn1ccc(=O)c2cc([N+](=O)[O-])ccc21`, the EC50 is more than 200 µM and the IC50 is more than 200 µM.
`CN(C)CC1CN=C(NC(=O)Nc2ccccc2)O1` (centres undefined): the EC50 is more than 200 µM and the IC50 is more than 200 µM.
Take `CC(=O)Oc1ccc2cc(-c3ccc(OC(C)=O)c(OC(C)=O)c3)c(=O)oc2c1`: the EC50 was more than 200 µM and the IC50 is 64.6 µM.
Taken in the same sequence, the figures for `CC(C)C(O)C(=O)C(O)C(C)C` (centres undefined) were more than 1020 µM and more than 1020 µM.
As to `CCOC(=O)Cc1nc(/C(C#N)=C/c2ccco2)[nH]c(=O)c1C#N`, the outcome was inactive.
On to `O=C1Nc2ccccc2NC1C1OC(c2ccccc2)=CC1=O` (centres undefined), for which the EC50 is more than 200 µM and the IC50 is 97.7 µM.
